Where two headings read alike, the source gives them in different places.
How the values were obtained:
HepG2-A16-CD81EGFP cells [1] = experiment: cells; conditions: Homo sapiens, HepG2, read-out: % inhibition
[2] = tested on: Plasmodium berghei (Pb-Luc) exoerythrocytic-stage parasites; experiment: microbe, parasite or virus in culture; conditions: for inhibition at 10 µM: read-out: PbLuc max inhibition (%) @ 10 uM
HepG2-A16-CD81EGFP cells [3] = experiment: cells; conditions: Homo sapiens, HepG2, read-out: % inhibition; remark: listed apart in the source
[4] = molecular target: QuantiLum Recombinant Luciferase (Photinus pyralis, UniProt P08659); experiment: Bioluminescence quantification of compound luciferase inhibition; conditions: for Emax: read-out: LucInhib max inhibition
HepG2-A16-CD81EGFP cells [5] = experiment: cells; conditions: Homo sapiens; for IC50: HepG2, read-out: Tox IC50; for inhibition at 10 µM: HepG2, read-out: Tox max inhibition (%) @ 10 uM; for inhibition at 50 µM: HepG2, read-out: Tox max inhibition (%) @ 50 uM
[6] = read-out: Inhibition% @ 50 uM rep1
[7] = read-out: Inhibition% @ 50 uM rep2
[8] = read-out: PbLuc IC50, dose response, unit inferred
[9] = HepG2, read-out: HepG2 Tox% @ 50 uM rep1
[10] = read-out: PbLuc IC50, dose response, 1/3 dilutions, max conc. 10 or 50 uM, unit inferred
[11] = read-out: PbLuc max inhibition (%) @ 50 uM
[12] = HepG2, read-out: HepG2 Tox% @ 50 uM rep2

Sequence of QuantiLum Recombinant Luciferase (P08659 whole entry): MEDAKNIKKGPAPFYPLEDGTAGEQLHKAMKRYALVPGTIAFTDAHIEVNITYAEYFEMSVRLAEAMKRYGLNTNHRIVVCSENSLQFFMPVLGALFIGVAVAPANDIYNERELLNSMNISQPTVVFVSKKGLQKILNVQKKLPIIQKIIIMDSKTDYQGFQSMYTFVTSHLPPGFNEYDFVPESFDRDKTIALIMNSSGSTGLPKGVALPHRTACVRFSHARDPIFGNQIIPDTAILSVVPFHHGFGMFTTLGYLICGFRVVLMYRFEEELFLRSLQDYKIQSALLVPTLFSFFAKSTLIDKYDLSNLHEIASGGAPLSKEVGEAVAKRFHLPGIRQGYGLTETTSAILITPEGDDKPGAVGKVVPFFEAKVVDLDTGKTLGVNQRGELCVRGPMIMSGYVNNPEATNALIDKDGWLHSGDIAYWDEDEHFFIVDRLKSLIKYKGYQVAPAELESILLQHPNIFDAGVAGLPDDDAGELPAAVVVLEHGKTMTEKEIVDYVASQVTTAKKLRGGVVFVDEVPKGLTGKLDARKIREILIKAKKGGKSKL

Row | SMILES | inhibition at 50 µM (HepG2-A16-CD81EGFP cells [1]) | inhibition at 50 µM [2, 6] | inhibition at 50 µM [2, 7] | inhibition at 50 µM (HepG2-A16-CD81EGFP cells [3]) | IC50 [2, 8] | inhibition at 10 µM [2] | IC50 [4] | Emax [4] | cytotoxicity at 50 µM (HepG2-A16-CD81EGFP cells [5]; [9]) | IC50 (HepG2-A16-CD81EGFP cells [5]) | inhibition at 10 µM (HepG2-A16-CD81EGFP cells [5]) | IC50 [2, 10] | inhibition at 50 µM [2, 11] | inhibition at 50 µM (HepG2-A16-CD81EGFP cells [5]) | cytotoxicity at 50 µM (HepG2-A16-CD81EGFP cells [5]; [12])
1 | CCOc1cc2c(cc1OCC)C(c1cc(C)c(O)c(C)c1)NCC2 (stereo not drawn) [MMV000483] | 23% | 69% | 61% | 55.7% |  |  |  |  |  |  |  |  |  |  | 
2 | COc1ccc(C2Sc3ccccc3N=C3C2=C(O)c2ccccc23)cc1 (stereo not drawn) [MMV000563] | 62.5% | 103% | 104% | 71.1% |  |  |  |  |  |  |  |  |  |  | 
3 | CC1CCCCN1CCCNC(=O)c1ccc2c(c1)sc1nc(-c3ccc(F)cc3)cn12 (stereo not drawn) [MMV000634] | 97% | 103% | 103% | 98.9% |  |  |  |  |  |  |  |  |  |  | 
4 | COc1ccccc1CNC(=O)C1c2ccccc2C(=O)N(CC(C)C)C1c1cccs1 (stereo not drawn) [MMV000648] | 83.2% | 103% | 105% | 91.6% |  |  |  |  |  |  |  |  |  |  | 
5 | CCOc1ccccc1CNC(=O)C1c2ccccc2C(=O)N(CC(C)C)C1c1cccs1 (stereo not drawn) [MMV000653] | 90.2% | 104% | 106% | 94% |  |  |  |  |  |  |  |  |  |  | 
6 | OC(CNC1CCCC1)Cn1c2ccccc2c2ccccc21 (stereo not drawn) [MMV000848] | 96.9% | 103% | 104% | 99.2% |  |  |  |  |  |  |  |  |  |  | 
7 | O=C1CC(O)(C(F)(F)C(F)(F)F)Oc2ccccc21 (stereo not drawn) [MMV000972] | 96.7% | 103% | 105% | 97.9% |  |  |  |  |  |  |  |  |  |  | 
8 | Cc1ccc(Nc2nc(NCCO)c3ccccc3n2)cc1C [MMV001038] | 94.2% | 102% | 102% | 96.1% |  |  |  |  |  |  |  |  |  |  | 
9 | O=C(Nc1ccc(-c2nc3ccccc3[nH]2)cc1)c1ccc(Cl)c(Cl)c1 [MMV665840] |  | -57% | -66% |  | > 10 µM | 15% | > 20 µM | 22% | -7% | > 10 µM | 31% |  |  |  | 
10 | Oc1c2c(nc3ccccc13)CCCC2 [MMV665843] |  | 98% | 100% |  |  |  | > 50 µM | 18% | -7.59% | > 50 µM |  | 0.894 µM | 101% | 8% | 
11 | COc1cccc(NC(=O)[C@H](C(C)C)n2c(=O)[nH]c3ccccc3c2=O)c1 [MMV665878] |  | 102% | 102% |  |  |  | > 50 µM | 28% | 12% | > 50 µM |  | 13.2 µM | 101% | 13% | 4.53%
12 | O=C(c1ccccc1F)N(Cc1ccc(Cl)cc1)c1ccccn1 [MMV665899] |  | 100% | 98% |  |  |  | > 50 µM | 40% | 20% | > 50 µM |  | 9.54 µM | 94% | 6% | 28%
13 | COCCn1c(C)nc2ccccc2c1=O [MMV665904] |  | 100% | 102% |  |  | 90% | > 20 µM | 13% | 1.26% | > 10 µM | 22% | 1.99 µM |  |  | -3%
14 | N=c1c2ccccc2nnn1-c1cccc(C(F)(F)F)c1 [MMV665923] |  | 99% | 99% |  |  |  | > 50 µM | 26% | -7.5% | > 50 µM |  | 0.789 µM | 104% | 26% | 
15 | FC(F)(F)c1ccc(Nc2nnnc3ccccc23)cc1 [MMV665935] |  | 102% | 101% |  |  |  | > 50 µM | 25% | 19% | > 50 µM |  | 0.738 µM | 105% | 7% | -5%
16 | CCOc1ccc(C=Cc2nc(=O)c3ccccc3o2)cc1 [MMV665940] |  | 102% | 101% |  |  |  | 16.5 µM | 85% | 19% | > 50 µM |  | 0.646 µM | 104% | 18% | 1%
17 | CCOC(=O)c1cn(CC)c2cc(N(C)CCc3ccc(OC)c(OC)c3)c(F)cc2c1=O [MMV665977] |  | 103% | 106% |  |  |  | > 50 µM | 40% | 6% | > 50 µM |  | 1.61 µM | 106% | 3.53% | 3%
18 | Cc1ccc(N2C(=O)C3C(C2=O)C2(c4ccccc4)C(=O)C3(c3ccccc3)C(c3ccccc3)=C2c2ccccc2)cc1 (stereo not drawn) [MMV666062] |  | 91% | 100% |  |  |  | > 50 µM | 23% | 1.06% | > 50 µM |  | 6.54 µM | 102% | 9% | 8.55%
19 | O=C(NC1CCCC1)c1ccc(N2CCC(NCc3cccc(C(F)(F)F)c3)CC2)cc1 [MMV666070] |  | 98% | 96% |  |  |  | > 50 µM | 18% | -11% | > 50 µM |  | 1.86 µM | 98% | 10% | 8.43%
20 | CCCc1c(C)nc2ccccc2c1O [MMV666081] |  | 101% | 103% |  |  | 100% | > 20 µM | 18% | 0.331% | > 10 µM | 2.31% | 0.195 µM |  |  | -5.31%
21 | CCCc1c(C)nc2ccc(Br)cc2c1O [MMV666095] |  | 102% | 103% |  |  |  | > 50 µM | 25% | -21% | > 50 µM |  | 0.794 µM | 106% | -6% | 
22 | CC(C)(C)c1ccc(C(=O)Nc2c3c(nn2-c2cccc(Cl)c2)CSC3)cc1 [MMV666123] |  | 101% | 102% |  |  |  | > 50 µM | 23% | 18% | > 50 µM |  | 10.1 µM | 103% | 10% | 
23 | O=[N+]([O-])c1ccc(C=NNc2nc3ccccc3[nH]2)cc1 [MMV666607] |  | -47% | -99% |  | > 10 µM | -2.2% | > 20 µM | 30% | 14% | > 10 µM | 5% |  |  |  | 20%
